In article PMC9827864, “In Situ Inhibitor Synthesis and Screening by Fluorescence Polarization: An Efficient Approach for Accelerating Drug Discovery” (Angewandte Chemie (International Ed. in English), 2022):

What was measured:
[1] = Acute oral toxicity assay; type: in vivo; details: both sexes, mouse, in vivo, 400 mg·kg-1; ICR mice, single oral administration
ICR mice = assay: Acute oral toxicity assay; type: in vivo; details: 400 mg kg−1 oral, once
[2] = molecular target: T1, human prolyl hydroxylase 2 (PHD2) (Homo sapiens, UniProt Q9GZT9); assay: Fluorescence polarization (FP) competition assay of PHD2; details: purified compounds, 20 nM PHD2 (181-426), 30 nM probe, Cheng-Prusoff, mean±SD, read-out: Ki, binding affinity for PHD2
T1 construct: (181-426); made in house
Method: 2.1 Fluorescence polarization (FP) competition assay of PHD2 [4]
FP assays were performed using a SPARK Multi-Mode Microplate Reader (Tecan) with excitation and emission filters appropriate for the fluorophore used in the binding experiment. Fluorescence polarization experiments were performed in 384-well, flat bottom, black assay plates (#3575, Corning) in a final volume of 60 µL. The final assay buffer contained: 30 nM fluorescence Probe, 20 nM PHD2 (181-426), 10 mM HEPES, pH 7.4, 150 mM NaCl, 0.05% Tween-20, and at the 1% DMSO (except for DMSO tolerance experiments, in which different DMSO concentrations were used as indicated). All plates measured in fluorescence polarization assays were incubated for a minimum of 30 min at RT. Fluorescence polarization was measured from the top of the well with a Tecan SPARK plate reader with polarized filters and optical modules for fluorescein (λex = 485 nm ± 25 nm, λem = 535 nm ± 25 nm). The standard error of the mean (SEM) values, were calculated by dividing the sample standard deviation by the square root of the sample size and are recorded as ± values for IC 50. Dose-dependent experiments were performed in th e same manner using at least 10 concentrations of the test compounds in 3 -fold serial dilutions from 100 µM. For each assay, negative controls (equivalent to 0% displacement) contained the fluorescent ligand, PHD2 (181 -426), and 20 µL FP buffer; blank cont rols contained only the fluorescent ligand and 40 µL buffer.
The reaction mixtures were incubated at RT for 60 min, then total fluorescence and fluorescence polarization measurements wer e taken. The percentage inhibition was calculated using Equation 1, where mPfree is the signal for the free probe (blank control) and mPbound is the signal for the bound probe (negative control).
IC50s were determined for duplicate measurements by non-linear least-squares analysis using GraphPad Prism 8.0.
The Ki values of the inhibitors were calculated using the Cheng-Prusoff equation.[5] Cheng-Prusoff equation: Ki = IC50 / (1 + [L]/Kd)
The Kd value was determined using a constant concentration of probe and titrating with PHD2 protein at increasing concentrations. [L] represents the concentration of the […] used in the FP assay. […]

[3] = tested on: plasma EPO in C57BL/6J mice; assay: In vivo EPO increased assay (plasma EPO ELISA); parameters: species or system mouse; details: C57BL/6J mice, 10, 20 and 50 mg kg−1 po, 4 hours
Method: A structure of PHD2 in complex with Fe and a 2OG competing inhibitor (PDB ID: 4KBZ) was obtained from PDB website. The structure files of protein and compounds for docking were prepared using the Discovery Studio (DS) 2020 software. A water molecule HOH624, conserved in the active binding site of PHD2, was retained during the docking. Residues of PHD2 around the native ligand (radius = 10 Å) were defined as the binding sites for docking. Subsequently, the ligand was removed; the Fe (II) was retained during the docking. Compounds were docked into the binding sites using GOLD 5.1. Docking procedures were performed using the default setting with 100 genetic algorithm (GA) runs of ligands. […]
17 was preincubated with microsomes from different species (0.5 mg/mL) at 1 μM for 5 min at 37 °C in 100 mM PBS buffer (pH 7.4). […] The samples were centrifuged at 5000 rpm f or 10 min; the supernatants were then analyzed by HPLC. […]
Representative compounds and Roxadustat were formulated in normal saline solution. […] Subsequently, these samples were analyzed for reticulocytes in the center for new drug safety evaluation and research of China Pharmaceutical University (ADVIA 2120 hematology system). […]
Plasma EPO was evaluated using the erythropoietin quantikine ELISA kit for mice (MEP00B). […]
in normal saline solution. […] Plasma was collected by centrifugation at 3000 rpm, these plasmas were detected by E PO […]

T1 sequence (Q9GZT9 181-426): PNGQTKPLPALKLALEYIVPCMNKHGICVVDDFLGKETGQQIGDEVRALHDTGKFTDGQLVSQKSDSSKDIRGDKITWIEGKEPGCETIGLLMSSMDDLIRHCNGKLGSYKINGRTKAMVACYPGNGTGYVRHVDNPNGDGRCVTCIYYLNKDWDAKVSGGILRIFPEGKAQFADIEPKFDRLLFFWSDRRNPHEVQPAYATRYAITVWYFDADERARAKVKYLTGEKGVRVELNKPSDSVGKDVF

O=C(N/N=C/c1cccc(O)c1Cl)c1cnc(-c2cccnn2)[nH]c1=O [compound 17]
LD50 [1]: > 400 mg/kg | acute oral toxicity findings (body weight, organ/body weight ratio, ALT, AST, BUN, CRE) (ICR mice): no obvious abnormality | Ki [2]: 27 ± 2 nM | plasma EPO response [3]: dose‐dependent induction of EPO, similarly to Roxadustat
